This note sets out measurements from patent US5656662A, “Synthesis of optically pure 4-alkenyl- or 4-alkanyl-2-hydroxytetronic acids” (The Ohio State University Research Foundation, priority 1995, dated 1997).

What all share (format): cell-based
Series [1] has as its system normal human mononuclear cells. The series can be described thus: PHA mitogen-stimulated cell proliferation. Also on record: key: NE: No effect; INHIB: Inhibition; STIM: Stimulation; IC40: 40% Inhibitory Concentration; EC50: 50% Effective Concentration; TC: Tolerated Concentration; IA: Interferes with Assay. How it is done: The purpose of this procedure is to determine the effect of test compounds on Mixed Lymphocyte Reaction and Mitogen-Induced Proliferation of normal human mononuclear cells.
Procedure for Cell Proliferation: Peripheral blood mononuclear cells (PBMNC) are added to a 96-well cell culture plate. Compounds are tested at four dilutions, in quadruplicates, over a range of three log10 concentrations along with negative an inhibitory controls. The test compounds are incubated with the cells for one hour, phytohemagglutinin (PHA) is then added to all reactive test wells and the cultures are incubated for three days. The cultures are then pulsed with ^3 H incorporation is then determined with a Wallac Betaplate counter.
Procedure for Cell Proliferation: Peripheral blood mononuclear cells (PBMNC) are added to a 96-well cell culture plate. Compounds are tested at four dilutions, in quadruplicates, over a range of three log10 concentrations along with negative an inhibitory controls. The test compounds are incubated with, the cells for one hour, phytohemagglutinin (PHA) is then added to all reactive test wells and the cultures are incubated for thee days. The cultures are then pulsed with ^3 H incorporation is then determined with a Wallac Betaplate counter.

In the next series the test system is IL-1β. Nature of the series: IL-1β secretion from purified human monocytes. Also on record: key to EFFECT on IL1β: NE: No effect; INHIB: Inhibition; STIM: Stimulation; IC40: 40% Inhibitory Concentration; EC50: 50% Effective Concentration; TC: Tolerated Concentration; IA: Interferes with Assay. The protocol: This assay determines the effect of test compounds on the secretion of IL-1β from purified human monocytes.
Compounds are tested for their ability to downregulate the production of IL-1β in activated monocytes, or upregulate secretion of IL-1β in unstimulated monocytes. Test compounds are incubated for sixteen hours with purified human monocytes at four dilutions over a range of three log10 concentrations. Where appropriate, lipopolysaccharide (LPS) is used to stimulate the monocytes.
The level of IL-1β in the resultant supernatants is quantitated in a solid phase Enzyme-linked Immunoassay (EIA) performed in a 96 well format. IL-1β present in the samples is captured by a specific monoclonal antibody immobilized on the well, and probed with an anti-IL-1β polyclonal antibody conjugated to horseradish peroxidase, followed by an appropriate substrate. The levels of IL-1β are determined by interpolation of the resultant color change in the substrate from a standard curve. All supernatants are tested in duplicate with controls and standards.
This assay determines the effect of test compounds on the secretion of IL-1β from purified human monocytes. Compounds are tested for their ability to downregulate the production of IL-1β in activated monocytes, or upregulate secretion of IL-1β in unstimulated monocytes. Test compounds are incubated for sixteen hours with purified human monocytes at four dilutions over a range of three log10 concentrations. Where appropriate, lipopolysaccharide (LPS) is used to stimulate the monocytes.

The subject of another series is IL-8. Nature of the series: IL-8 secretion from purified human monocytes. Also on record: key: NE: No effect; INHIB: Inhibition; STIM: Stimulation; IC40: 40% Inhibitory Concentration; EC50: 50% Effective Concentration; TC: Tolerated Concentration; IA: Interferes with Assay. How it is done:
This assay determines the effect of test compounds on the secretion of IL-8 from purified human monocytes. Compounds are tested for their ability to downregulate the production of IL-8 in activated monocytes, or upregulate secretion of IL-8 in unstimulated monocytes. Test compounds are incubated for sixteen hours with purified human monocytes at four dilutions over a range of three log10 concentrations. Where appropriate, lipopolysaccharide (LPS) is used to stimulate the monocytes.
The level of IL-8 in the resultant supernatants is quantitated in a solid phase Enzyme-linked Immunoassay (EIA) performed in a 96 well format. IL-8 present in the samples is captured by a specific monoclonal antibody immobilized on the well, and probed with an anti-IL-8 polyclonal antibody conjugated to horseradish peroxidase, followed by an appropriate substrate. The levels of IL-8 are determined by interpolation of the resultant color change in the substrate from a standard curve. All supernatants are tested in duplicate with controls and standards.

A further series deals with phospholipase A2. The series can be described thus: Cellular phospholipase A2 activity in human monocytes. Also on record: key: NE: No effect; INHIB: Inhibition; STIM: Stimulation; IC40: 40% Inhibitory Concentration; EC50: 50% Effective Concentration; TC: Tolerated Concentration; IA: Interferes with Assay. The protocol:
This assay measures the ability of test compounds to modulate the activity of the cellular phospholipase A2 in human monocytes. Compounds are tested for their ability to inhibit stimulate phospholipase A2 activity or activate basal activity in unstimulated monocytes. Test compounds are incubated for ninety minutes with purified human monocytes at four dilutions over a range of three log10 concentrations. Where appropriate, zymosan is used to stimulate the monocytes.
Monocytes with the arachidonyl moiety of phospholipids radiolabelled are utilized in a 96 well format. Percent release of radiolabelled fatty acid into the extracellular medium is quantified by liquid scintillation counting. All compounds are tested in duplicate with controls and standards.

A short description of another series: MTS. The settings on record: human, monocytes; read-out: TC (Tolerated Concentration), MTS.
For another series, the system named is LTB4. The series can be described thus: LTB4 production by purified human monocytes. Also on record: key: NE: No effect; INHIB: Inhibition; STIM: Stimulation; IC40: 40% Inhibitory Concentration; EC50: 50% Effective Concentration; TC: Tolerated Concentration; IA: Interferes with Assay. The protocol:
This assay measures the ability of test compounds to modulate the amount of LTB4 produced by the oxygenation of arachidonic acid by 5-lipooxygenase produced by purified human monocytes. Compounds are tested for their ability to downregulate the secretion of LTB4 from activated monocytes, or upregulate secretion of LTB4 from unstimulated monocytes. Test compounds are incubated for ninety minutes with purified human monocytes at four dilutions over a range of three log10 concentrations. Where appropriate, zymosan is used to stimulate the monocytes.
The level of LTB4 in the resultant supernatants is quantitated by immunoassay performed in a 96 well format. LTB4 levels modulated by unknown compounds are determined by interpolation from a standard curve. All compounds are tested in duplicate with controls and standards.

Molecules are shown by their SMILES.

For `CCCCCCCCCCCCCC/C=C\CC[C@@H]1OC(=O)C(O)=C1O` [(S)-3,4-Dihydroxy-5-[(Z)-3-octadecenyl]-2(5H)-furanone], the “EFFECT on PHA” value in series [1] is given as “NE”. In addition, the IC40 in the series on IL-1β (Homo sapiens, Monocyte, 16 h, STIMULATED, INHIB, 40% Inhibitory Concentration, read-out: IC40, IL1β) is 50 µM. Besides, the “EFFECT on IL1β” value in the series on IL-1β (STIMULATED) is “INHIB”; with IL-1β (UNSTIMULATED) it was “NE”. The “EFFECT on IL8” value in the series with IL-8 (STIMULATED) and in the series with IL-8 (UNSTIMULATED) was “NE” in each case. Also, the “EFFECT on PLA2” value with phospholipase A2 (STIMULATED) and in the series with phospholipase A2 (UNSTIMULATED) was “NE” each time. Further, the MNTC in the series “MTS” was 50 µM. In addition, the “EFFECT on LTB4” value with LTB4 (STIMULATED) and in the series with LTB4 (UNSTIMULATED) was “NE” in each case.
